{"source": "patent US20200147038A1", "about": "“ASSESSING AND TREATING PSYCHEDELIC-[…]” (Eleusis Benefit Corporation, PBC, priority 2017, published 2020)", "key": {"[1]": {"assay": "Retrospective online survey of individuals who had consumed psilocybin (Example 1; MEQ30, positive change)", "format": "in vivo, human", "method": "A retrospective survey study was conducted based on crowdsourced online data gathered from individuals who had volitionally consumed psilocybin within the past year. Data were collected about participants' traits and demographic background, and then individuals were primed to recall their life experience before, at the time of ingestion, during, and after the psilocybin before completing scales to measure hypothesized traits and states. Previously validated scales were used where available (e.g., Tellegen Absorption Scale, MEQ30), and new scales were developed and tested for traits and states without existing measures (mental barriers, identity distress, state of surrender). A hierarchical regression model was used to test the relationships, and a path analysis was conducted to test the mediating capacity of ME.\nParticipants were directed to the relevant webpage after reading informed consent text, completing screening and agreeing to participate in accordance with the stipulations of the Institutional Review Board. Scaled items in all but the long-term outcomes used 4-point Likert scales ranging from 1=Strongly Disagree to 4=Strongly Agree. Answers were required for each item, but each included an option “I prefer not to answer.”\nParticipants' experiences were measured in two pages on the survey. The first activated their recollection of the experience through an open-ended question asking them to describe their experience and specific fixed response questions about their experience, including whether their eyes were primarily open or closed and the extent to which they were talking or exposed to media with words during their experience. On the second page, subjects responded to […] intermixed items on a 4-point Likert scale from the Mystical Experience Questionnaire (MEQ30) and 36 items from the Sacred Emotions Scale (SES), measuring the extent to which they felt “exuberance” and “dread” during the experience.\nThe MEQ30 is a validated scale consisting of 30 items systematically validated and utilized in psychedelic studies. Some of the items from the MEQ30 were adapted for this study so that they were semantically consistent with the other scale (e.g., changed “I felt certain that I′d encountered ultimate reality” to “Certainty that I′d encountered ultimate reality”), and used a 4-point rather than a 7-point scale for reasons described above. The scale measures four dimensions of a mystical experience: (a) Mystical; 15 items with α=0.957, (b) Ineffability; 3 items with α=0.775, (c) Timelessness/Spacelessness; 6 items with α=0.844, and (d) Positive Affect; 6 items with α=0.851. The total scale produced Cronbach α=0.967. All of the reliability scores from this sample were similar to internal reliability scores produced in the norming sample (MacLean), which ranged from 0.831 to 0.936 for the four factors and 0.957 for the total scale.\nParticipants were asked to describe their current state in two pages. […] The second page offered 46 statements including 15 intermixed items adapted from the work of Griffiths et al., (Psychopharmacology 2006, 187:268-283) measuring\nData were collected on Amazon Mechanical Turk (MTurk), an online source in which individuals participate in survey studies for small cash compensation. […] Individuals who were registered as MTurk Workers from the U.S. indicated their interest by accepting the job or the “hit.” If individuals accepted the “hit,” they were directed to a screening page. If they passed those screening items, described below, they were given a link and password to the informed consent followed by the actual survey. • Screening\nThe mean number of correct attention items in the final sample was 11.5 of 12 (SD=1.02), and the mean for the non-selected group was 4.69 (SD=3.36) attention items answered correctly. The final sample consisted of 143 valid responses with 81 males and 62 females (43%), and an average age of 31.1 (SD=9.64), with ages ranging from 18 to 62 years. […]"}, "[2]": {"assay": "Retrospective online survey of psilocybin users (Example 2; 5D-ASC Mystical-OBN / Adverse-DED, long-term change)", "format": "in vivo, human", "settings": "for Negative Change, Mean / Positive Change, Mean: 5-point scale, 3=no change; for Flourishing, Mean: 6-point scale; for Importance, Mean: slider scale 1 to 100", "from_the_text": "Participants were U.S. residents recruited through Amazon Mechanical Turk (MTurk; an online source in which individuals participate in survey studies for small cash compensation) who had ingested psilocybin within the past twelve months. The final screened sample consisted of 183 valid responses with 97 males (53.0%) and 85 females (46.4%) (1 missing), and an average age of 31.9 (SD=9.43) ranging from 18 to 70 years.\n[…]. The six sections included background items, trait measures, prior state (i.e., life situation before psilocybin session), proximal state (i.e., emotions and motivation at ingestion), intrasession measures (i.e., the experience itself), and current state. Scaled items in all but the long-term outcomes used […] Likert scales ranging from 1=Strongly Disagree to 6=Strongly Agree. Open-ended questions designed to activate participants' relevant recollections were completed before responding to scale items related to prior state, proximal state, intrasession, and current status. Measures utilized in the regression models include the following;\nMeasures of intrasession experience based on items from six subscales of the 5D-ASC (Dittrich et al., A Pharmacopsychiatry 1998, 31:80; Studerus et al., PLoS ONE 2010, 5). Mystical-OBN used a mean of items measuring Oceanic Boundlessness (Studerus et al., PLoS ONE 2012, 7): “experience of unity”, “spiritual experience”, “blissful state”, and “insightfulness”. Adverse-DED was a mean of items associated with Dread of Ego Dissolution (Studerus et al., PLoS ONE 2012, 7): “impaired control and cognition”, and “anxiety.” Scores for Mystical-OBN ranged from 1-5.92 (M=3.87, SD=1.16; α=0.93), and scores for Adverse-DED ranged from 1-5.47 (M=2.25, SD=0.98, α=0.91).\nScale items measuring change based on pairs of adjectives adapted from Griffiths (2006). Individuals used a 5-point scale to indicate whether they had experienced a decrease, no change, or an increase in the characteristics. Positive change was calculated with the mean of nine items related to interpersonal traits, intrapersonal characteristics, and attitudes (Cronbach's α=0.929). Negative change was the mean of three items (α=0.883).\nAnalyses of the impact of mystical experience on long-term outcomes were conducted in two ways: (1) independent t-test comparisons of each long-term outcome based on a complete or not complete mystical experience, and (2) a path analysis of the mediating role of mystical experience on positive change.\nScores for importance were based on a slider scale ranging from 1 to 100. […] Flourishing was rated on a 6-point scale ranging from 1=strongly disagree to 6=strongly agree."}, "[3]": {"settings": "Complete mystical experience, N=51"}, "[4]": {"settings": "None/partial mystical experience, N=129"}}, "note": "“And” between values parts separate entries of the source, which are not always exact repeats. Equal values may be shown once.", "data": [{"smiles": "CN(C)CCc1c[nH]c2cccc(OP(=O)(O)O)c12", "note": "[psilocybin]", "values": [{"measurement": "proportion meeting criteria for a complete ME", "setting": "[1]; MEQ30, >2.5 of 4 on all four subscales, whole sample", "result": 58, "unit": "%"}, {"measurement": "proportion with a full ME, experienced psychedelic users", "setting": "[1]; MEQ30, >2.5 of 4 on all subscales, experienced users, n=70", "result": 63, "unit": "%"}, {"measurement": "proportion with a full ME, novice users", "setting": "[1]; MEQ30, >2.5 of 4 on all subscales, novice users, n=13", "result": 42, "unit": "%"}, {"measurement": "proportion reporting complete MEs, reanalysis with cut point of 3", "setting": "[1]; MEQ30, cut point 3 of 4 on all subscales", "result": 45, "unit": "%"}, {"measurement": "Positive Change, Mean", "setting": "[1]; participants with Complete ME, N=83", "result": 3.8348}, {"measurement": "Positive Change, Mean", "setting": "[1]; participants with No/Incomplete ME, N=60", "result": 3.2274}, {"measurement": "mean positive change score", "setting": "[1]; whole sample (143 valid responses), higher scores = increases in positive emotions and decreases in negative emotions", "result": "3.58 (SD=0.65)"}, {"measurement": "Adverse-DED score, mean", "setting": "[2]; 5D-ASC Dread of Ego Dissolution items, whole sample (183)", "result": 2.25}, {"measurement": "Mystical-OBN score, mean", "setting": "[2]; 5D-ASC Oceanic Boundlessness items, whole sample (183)", "result": 3.87}, {"measurement": "Negative Change, Mean", "setting": "[2]; [3]", "result": 2.22}, {"measurement": "Positive Change, Mean", "setting": "[2]; [3]", "result": 4.00}, {"measurement": "Flourishing, Mean", "setting": "[2]; [3]", "result": 4.78}, {"measurement": "Importance, Mean", "setting": "[2]; [3]", "result": 75.66}, {"measurement": "Negative Change, Mean", "setting": "[2]; [4]", "result": "2.75 and 2.74"}, {"measurement": "Positive Change, Mean", "setting": "[2]; [4]", "result": 3.39}, {"measurement": "Flourishing, Mean", "setting": "[2]; [4]", "result": 4.39}, {"measurement": "Importance, Mean", "setting": "[2]; [4]", "result": 42.75}]}]}
